Experiment [1] deals with T1, Long-chain-fatty-acid--AMP ligase FadD28 (Mycobacterium tuberculosis, UniProt P9WQ59).
T1 sequence (P9WQ59 whole entry): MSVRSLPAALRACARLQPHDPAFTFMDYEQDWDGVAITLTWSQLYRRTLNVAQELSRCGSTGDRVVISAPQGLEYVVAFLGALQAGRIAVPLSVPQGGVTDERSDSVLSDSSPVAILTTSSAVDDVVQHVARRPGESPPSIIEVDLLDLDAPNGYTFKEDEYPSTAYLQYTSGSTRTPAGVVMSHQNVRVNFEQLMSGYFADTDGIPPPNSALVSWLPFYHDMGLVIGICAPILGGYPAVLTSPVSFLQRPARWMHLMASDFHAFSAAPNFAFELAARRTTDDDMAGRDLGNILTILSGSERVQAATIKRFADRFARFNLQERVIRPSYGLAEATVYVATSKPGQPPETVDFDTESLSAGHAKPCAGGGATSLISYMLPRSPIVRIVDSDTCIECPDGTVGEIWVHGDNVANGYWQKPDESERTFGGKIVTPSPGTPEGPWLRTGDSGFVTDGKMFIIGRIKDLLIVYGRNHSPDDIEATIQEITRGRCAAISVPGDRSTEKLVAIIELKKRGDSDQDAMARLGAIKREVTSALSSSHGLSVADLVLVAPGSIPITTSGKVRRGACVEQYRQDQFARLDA
Nature of the experiment: Fluorescence polarization aasay to screen for inhibitors that compete for the binding of FadD28 to a bisubstrate Measured in Biochemical System Using Plate Reader - 2147-01_Inhibitor_Dose_CherryPick_Activity. It is filed as functional, Mycobacterium tuberculosis H37Rv. On the technique in general: Fluorescence polarisation rises when a labelled molecule tumbles more slowly, as on binding a larger partner.

For experiment [2], the target named is T2, Fatty acid synthase (Homo sapiens, UniProt P49327). Nature of the experiment: inhibition of human FAS-TE enzyme activity – biochemical, endpoint fluorescence intensity, uHTS hits, dose response (AID 624327).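 Also: fluorescence from hydrolysis of an O-methyl fluorescein acyl ester substrate by the enzyme.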 The experiment is classed as functional.
T2 sequence (P49327 whole entry): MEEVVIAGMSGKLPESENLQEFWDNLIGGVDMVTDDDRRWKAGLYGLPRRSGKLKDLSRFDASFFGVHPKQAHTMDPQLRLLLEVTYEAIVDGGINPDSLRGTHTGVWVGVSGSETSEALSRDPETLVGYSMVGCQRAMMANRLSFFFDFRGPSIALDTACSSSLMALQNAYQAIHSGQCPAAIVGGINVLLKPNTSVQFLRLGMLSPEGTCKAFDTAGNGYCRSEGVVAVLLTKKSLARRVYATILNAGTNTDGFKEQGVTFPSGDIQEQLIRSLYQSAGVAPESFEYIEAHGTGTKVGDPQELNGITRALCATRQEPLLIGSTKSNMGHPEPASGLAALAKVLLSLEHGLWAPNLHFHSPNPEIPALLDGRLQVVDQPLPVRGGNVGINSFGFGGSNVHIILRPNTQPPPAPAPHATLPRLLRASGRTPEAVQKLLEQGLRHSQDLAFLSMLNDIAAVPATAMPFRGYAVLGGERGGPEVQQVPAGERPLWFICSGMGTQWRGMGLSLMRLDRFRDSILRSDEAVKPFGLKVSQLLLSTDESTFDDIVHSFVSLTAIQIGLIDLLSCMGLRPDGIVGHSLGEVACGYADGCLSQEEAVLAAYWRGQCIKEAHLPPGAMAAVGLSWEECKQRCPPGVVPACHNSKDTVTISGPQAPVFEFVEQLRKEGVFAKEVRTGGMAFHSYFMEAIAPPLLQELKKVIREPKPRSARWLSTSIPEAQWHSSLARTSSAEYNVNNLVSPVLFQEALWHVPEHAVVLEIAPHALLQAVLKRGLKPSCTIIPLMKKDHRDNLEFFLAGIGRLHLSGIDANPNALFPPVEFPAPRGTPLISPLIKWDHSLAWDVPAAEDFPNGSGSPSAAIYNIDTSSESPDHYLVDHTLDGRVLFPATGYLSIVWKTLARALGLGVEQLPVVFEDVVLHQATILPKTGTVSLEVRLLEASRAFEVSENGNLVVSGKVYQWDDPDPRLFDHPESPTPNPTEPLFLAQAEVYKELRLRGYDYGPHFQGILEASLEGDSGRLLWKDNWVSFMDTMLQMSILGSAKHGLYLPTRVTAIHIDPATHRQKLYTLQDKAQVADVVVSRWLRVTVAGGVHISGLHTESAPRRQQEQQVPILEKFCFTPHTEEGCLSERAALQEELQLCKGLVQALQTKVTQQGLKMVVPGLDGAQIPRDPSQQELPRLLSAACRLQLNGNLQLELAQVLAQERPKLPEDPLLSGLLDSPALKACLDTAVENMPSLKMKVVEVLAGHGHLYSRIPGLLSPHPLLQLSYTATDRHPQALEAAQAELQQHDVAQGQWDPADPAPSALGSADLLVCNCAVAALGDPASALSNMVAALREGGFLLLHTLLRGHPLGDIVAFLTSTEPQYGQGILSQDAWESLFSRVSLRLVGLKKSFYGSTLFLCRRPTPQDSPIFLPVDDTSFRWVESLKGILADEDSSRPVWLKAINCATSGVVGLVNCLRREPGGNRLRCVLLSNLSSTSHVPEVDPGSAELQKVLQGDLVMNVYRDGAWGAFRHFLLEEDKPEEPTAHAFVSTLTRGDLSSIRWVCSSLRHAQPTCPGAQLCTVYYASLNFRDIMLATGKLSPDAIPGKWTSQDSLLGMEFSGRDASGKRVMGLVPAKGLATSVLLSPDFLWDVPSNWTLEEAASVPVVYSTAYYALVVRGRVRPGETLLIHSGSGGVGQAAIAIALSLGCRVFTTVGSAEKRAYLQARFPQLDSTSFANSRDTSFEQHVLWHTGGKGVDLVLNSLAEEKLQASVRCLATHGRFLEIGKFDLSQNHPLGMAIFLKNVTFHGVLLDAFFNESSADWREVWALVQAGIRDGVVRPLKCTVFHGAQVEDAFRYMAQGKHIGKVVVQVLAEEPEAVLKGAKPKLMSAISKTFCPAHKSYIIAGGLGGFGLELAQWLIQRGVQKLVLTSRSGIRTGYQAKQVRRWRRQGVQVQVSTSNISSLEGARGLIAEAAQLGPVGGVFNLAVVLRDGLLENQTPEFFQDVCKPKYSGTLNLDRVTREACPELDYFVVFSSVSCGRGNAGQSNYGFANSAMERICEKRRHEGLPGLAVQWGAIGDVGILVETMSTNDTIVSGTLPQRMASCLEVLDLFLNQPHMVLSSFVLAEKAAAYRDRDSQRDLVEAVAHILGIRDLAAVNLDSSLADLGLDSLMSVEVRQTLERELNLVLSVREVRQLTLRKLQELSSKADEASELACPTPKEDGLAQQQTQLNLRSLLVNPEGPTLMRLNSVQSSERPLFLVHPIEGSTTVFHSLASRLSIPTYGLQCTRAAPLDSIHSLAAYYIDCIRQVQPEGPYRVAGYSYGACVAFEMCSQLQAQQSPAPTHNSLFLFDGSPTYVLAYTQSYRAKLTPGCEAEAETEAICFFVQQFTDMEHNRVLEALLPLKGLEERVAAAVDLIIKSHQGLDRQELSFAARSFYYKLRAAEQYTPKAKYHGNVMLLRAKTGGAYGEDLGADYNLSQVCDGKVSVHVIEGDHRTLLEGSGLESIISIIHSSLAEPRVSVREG
The target of experiment [3] is T2, Fatty acid synthase. Nature of the experiment: inhibition of human FAS-TE enzyme activity – biochemical, kinetic fluorescence intensity, dose response (AID 624326).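 Also: rate of fluorescence rise from hydrolysis of a fluorogenic O-methyl fluorescein ester substrate.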 It is filed as functional.
Experiment [4] deals with P388/ADR. Nature of the experiment: cells. The experiment is classed as functional. The conditions noted are these: Mus musculus.
Experiment [5] deals with SN12K1. Put plainly: cells. It is filed as functional. The conditions noted are these: Homo sapiens.
The test system of experiment [6] is P388. Nature of the experiment: cells. It is filed as functional. The note with it: Mus musculus.
Experiment [7] has as its target T3, Histone-lysine N-methyltransferase NSD2 (Homo sapiens, UniProt O96028).
T3 sequence (O96028 whole entry): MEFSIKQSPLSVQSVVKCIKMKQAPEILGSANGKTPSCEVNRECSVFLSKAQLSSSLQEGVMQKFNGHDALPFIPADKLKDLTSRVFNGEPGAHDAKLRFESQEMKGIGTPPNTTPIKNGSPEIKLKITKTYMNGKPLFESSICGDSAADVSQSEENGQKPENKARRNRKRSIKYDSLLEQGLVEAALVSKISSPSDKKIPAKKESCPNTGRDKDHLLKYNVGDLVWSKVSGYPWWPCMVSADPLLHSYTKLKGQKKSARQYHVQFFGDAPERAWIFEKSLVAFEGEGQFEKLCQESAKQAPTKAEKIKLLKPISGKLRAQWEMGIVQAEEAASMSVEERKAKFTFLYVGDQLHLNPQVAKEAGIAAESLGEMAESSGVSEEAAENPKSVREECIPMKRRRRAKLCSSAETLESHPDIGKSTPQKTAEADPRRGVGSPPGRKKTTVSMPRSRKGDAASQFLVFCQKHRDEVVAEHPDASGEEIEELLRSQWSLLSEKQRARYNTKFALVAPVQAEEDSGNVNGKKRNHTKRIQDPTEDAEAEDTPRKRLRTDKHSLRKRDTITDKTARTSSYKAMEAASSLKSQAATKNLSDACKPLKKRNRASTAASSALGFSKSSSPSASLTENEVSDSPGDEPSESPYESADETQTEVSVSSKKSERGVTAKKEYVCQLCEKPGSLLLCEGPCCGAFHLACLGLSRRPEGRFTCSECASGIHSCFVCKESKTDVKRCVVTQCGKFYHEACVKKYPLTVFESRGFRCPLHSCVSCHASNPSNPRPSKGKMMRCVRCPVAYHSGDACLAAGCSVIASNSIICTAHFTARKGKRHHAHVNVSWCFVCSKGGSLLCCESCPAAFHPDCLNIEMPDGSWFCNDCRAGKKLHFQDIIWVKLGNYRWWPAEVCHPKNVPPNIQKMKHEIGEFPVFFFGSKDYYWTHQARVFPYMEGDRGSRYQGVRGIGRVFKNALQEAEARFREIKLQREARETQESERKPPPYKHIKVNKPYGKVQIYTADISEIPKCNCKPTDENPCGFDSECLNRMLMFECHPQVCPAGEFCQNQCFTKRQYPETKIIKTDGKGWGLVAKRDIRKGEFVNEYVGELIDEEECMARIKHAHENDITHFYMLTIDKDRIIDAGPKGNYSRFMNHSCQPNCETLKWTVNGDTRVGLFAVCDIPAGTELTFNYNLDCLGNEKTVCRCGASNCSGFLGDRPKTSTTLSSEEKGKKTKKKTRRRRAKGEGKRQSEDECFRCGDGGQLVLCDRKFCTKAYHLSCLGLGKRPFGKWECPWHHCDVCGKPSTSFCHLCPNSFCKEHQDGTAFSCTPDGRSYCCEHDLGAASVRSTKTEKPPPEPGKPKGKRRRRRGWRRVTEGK
The experiment is classed as biochemical.

Experiment [8] in a line: blockers of HIV-1 envelope-mediated cell-cell fusion – cherry-pick, dose response (AID 652057). The experiment is classed as functional, cell-based.
Experiment [9] in a line: viability loss in CEM21 cells – cell-based, CellTiter-Glo luminescence, cherry-picked, cytotoxicity control for viral fusion inhibitor project, dose response (AID 652042).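 Also: potency for signal decrease meaning cytotoxicity.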 It is filed as functional. (In ATP-based viability assays light output follows the ATP content of the culture.)
A short description of experiment [10]: blockers of HIV-1 ZM109 envelope-driven cell-cell fusion – HeLa effector, CEM target cells, luciferase, cherry-pick, dose response (AID 652058).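 Also: luciferase signal from HIV-1 Env mediated cell-cell fusion of effector and target cells.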 The experiment is classed as functional, cell-based.
The target in experiment [11] is Beta-galactosidase (Escherichia coli, UniProt Q8VNN2). Put plainly: Dose response counterscreen for EBI2 assay utilizing the enzyme, b-galactosidase. It is filed as functional. On the technique in general: A counterscreen serves to expose hits that act by an unwanted route or on another target.
Chain of Beta-galactosidase (Q8VNN2 whole entry): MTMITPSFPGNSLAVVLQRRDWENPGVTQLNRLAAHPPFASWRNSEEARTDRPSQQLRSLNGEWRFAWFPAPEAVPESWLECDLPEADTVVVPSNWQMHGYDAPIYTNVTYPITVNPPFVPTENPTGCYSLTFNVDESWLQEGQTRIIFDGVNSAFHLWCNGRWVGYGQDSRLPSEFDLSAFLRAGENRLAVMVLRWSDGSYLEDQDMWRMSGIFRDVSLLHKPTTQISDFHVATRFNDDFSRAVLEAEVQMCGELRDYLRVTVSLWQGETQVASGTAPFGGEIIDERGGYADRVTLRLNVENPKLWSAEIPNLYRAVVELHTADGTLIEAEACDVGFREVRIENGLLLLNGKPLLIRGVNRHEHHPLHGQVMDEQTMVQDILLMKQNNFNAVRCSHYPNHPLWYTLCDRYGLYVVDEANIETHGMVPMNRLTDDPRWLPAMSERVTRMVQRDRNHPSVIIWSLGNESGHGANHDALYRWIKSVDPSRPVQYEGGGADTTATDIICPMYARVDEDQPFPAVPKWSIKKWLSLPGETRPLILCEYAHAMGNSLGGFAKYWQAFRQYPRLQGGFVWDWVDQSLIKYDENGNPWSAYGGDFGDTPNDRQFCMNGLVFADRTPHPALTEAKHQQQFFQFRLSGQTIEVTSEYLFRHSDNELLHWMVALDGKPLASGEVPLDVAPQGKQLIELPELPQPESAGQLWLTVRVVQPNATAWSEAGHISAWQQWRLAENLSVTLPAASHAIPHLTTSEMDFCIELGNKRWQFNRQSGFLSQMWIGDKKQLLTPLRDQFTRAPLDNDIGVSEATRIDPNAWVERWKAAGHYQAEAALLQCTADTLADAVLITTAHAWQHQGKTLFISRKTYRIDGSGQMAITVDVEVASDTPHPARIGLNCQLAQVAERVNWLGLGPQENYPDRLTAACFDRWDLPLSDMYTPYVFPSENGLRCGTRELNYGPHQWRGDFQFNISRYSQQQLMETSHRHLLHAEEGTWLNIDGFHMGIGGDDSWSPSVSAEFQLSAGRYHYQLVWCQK
A short description of experiment [12]: T. cruzi growth inhibition in host cells, dose response, cell-based, plate reader, dry powder, set 2 (AID 652275). The experiment is classed as functional.
In experiment [13] the test system is Streptococcus sp. 'group A'. Nature of the experiment: Streptococcus pyogenes SK(-)GAS viability under kanamycin – luminescence, BacTiterGlo, confirmation, counter-screen for streptokinase expression inhibitor project, dose response (AID 1900). The experiment is classed as functional, organism-based.
The subject of experiment [14] is Streptococcus. Put plainly: GAS UMAA2166 growth inhibition – luminescence, BacTiterGlo, counter-screen for streptokinase expression inhibitor project, dose response (AID 1915).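 Also: potency for reduction of bacterial viability or growth.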 The experiment is classed as functional, organism-based.
The nature of experiment [15]: HIV-1 AD8 envelope cell-cell fusion blockers – cherry-pick, dose response (AID 652062).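 Also: luciferase signal from cell-cell fusion driven by HIV-1 clade B AD8 Env; potency is for inhibitors of fusion seen as a drop in luminescence.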 The experiment is classed as functional, cell-based.
Experiment [16] can be described thus: off-target signal loss in HeLa-CEM21 co-culture – HeLa F-luc CTL cells, cherry-picked, counter-screen for HIV-1 Env fusion inhibitor project, dose response (AID 652040).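 Also: potency for signal decrease marking cytotoxic or nonspecific inhibition.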 It is filed as functional, cell-based.
Experiment [17] concerns the target T4, Rac GTPase-activating protein 1 (Homo sapiens, UniProt Q9H0H5).
T4 sequence (Q9H0H5 whole entry): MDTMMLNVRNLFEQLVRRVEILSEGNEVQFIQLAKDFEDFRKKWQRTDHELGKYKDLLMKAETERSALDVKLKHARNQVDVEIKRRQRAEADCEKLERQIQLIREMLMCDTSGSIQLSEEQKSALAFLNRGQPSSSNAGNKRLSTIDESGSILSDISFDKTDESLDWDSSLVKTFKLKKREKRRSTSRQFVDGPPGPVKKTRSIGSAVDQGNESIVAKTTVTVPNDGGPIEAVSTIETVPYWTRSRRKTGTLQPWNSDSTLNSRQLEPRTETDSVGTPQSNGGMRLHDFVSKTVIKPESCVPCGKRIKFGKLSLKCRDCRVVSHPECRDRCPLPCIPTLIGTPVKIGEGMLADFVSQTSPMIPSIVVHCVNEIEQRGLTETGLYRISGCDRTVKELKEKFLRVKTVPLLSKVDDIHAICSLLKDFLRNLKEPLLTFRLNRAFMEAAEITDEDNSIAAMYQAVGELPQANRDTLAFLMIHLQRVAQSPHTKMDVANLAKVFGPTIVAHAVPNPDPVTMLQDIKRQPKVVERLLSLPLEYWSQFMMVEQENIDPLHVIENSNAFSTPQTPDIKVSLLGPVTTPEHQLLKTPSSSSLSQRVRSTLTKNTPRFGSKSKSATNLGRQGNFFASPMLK
Put plainly: blockers of MgcRacGAP-driven Rac1 GTP hydrolysis – biochemical, ADP Hunter fluorescence, primary and confirmatory, confirmation (AID 624330). It is filed as functional.

Consider 14 compounds from ChEMBL document CHEMBL1201862, “PubChem BioAssay data set” (2004).

Each structure is given as a SMILES string. Active and inactive are the calls of the source. Where only a bound is given, the exact number is not on record here.

By AC50 is commonly meant the midpoint of the concentration-response curve, whichever way the signal moves. The term IC50 denotes the concentration needed to halve the response being measured. Broadly, the GI50 is the concentration that inhibits growth by half. A word on the EC50: it is the concentration giving half of the maximal effect.

For the compound `CC1=C(O)C(=O)C(c2c(C)cc(C)c(Br)c2C)=C(O)C1=O`, the AC50 in experiment [1] is 51.8 µM (active). Further, the IC50 was 10.8 µM (active) in experiment [2] and 9.46 µM (active) in [3].
Regarding `O=C(CN1C(=O)NC2(CCOc3ccccc32)C1=O)c1ccc(Br)cc1` (stereo not drawn), in [1], the AC50 was 98.9 µM (active).
In the case of `COC1C(O)C(C)OC(OC2C(Oc3cccc4c(O)c5c(=O)oc6ccc(C)c7c(=O)oc(c34)c5c67)OC(C)C(O)C2O)C1O` (stereo not drawn), the values for the GI50 in experiment [4], in [5] and in experiment [6] were 7.08 µM (inactive), 0.593 µM (active) and 0.598 µM (active), respectively. The AC50 in [7] is > 20 µM (inactive).
For `CCOC(=O)[C@]12CCC=C1N(Cc1ccc3c(c1)OCO3)C(=O)[C@H](CC(=O)NCC13CC4CC(CC(C4)C1)C3)C2`, the AC50 was 16.5 µM (active) in experiment [8], 34 µM (active) in experiment [9] and 22.7 µM (active) in experiment [10].
Consider `Cc1ccc2oc(=O)c3cnn(CC(=O)N(Cc4ccco4)C4CCCCC4)c3c2c1`, for which the IC50 in experiment [11] is > 80 µM (inactive).
As to `COc1cc(/C=C2\C(=O)NN(c3ccc(C)cc3)C2=O)cc([N+](=O)[O-])c1O`, the AC50 in experiment [1] is 86.9 µM (active).
In the case of `Cc1ccc(NN=C(S)Nc2ccc(C(C)C)cc2)c(C)c1`, the IC50 in experiment [11] was 66.1 µM (inactive).
Turning to `CC(C)(C)[S+]([O-])N1Cc2cc(C(=O)NCc3ccc4c(c3)OCO4)nc(-c3cccc(C#CCC4CCCC4)c3)c2[C@H]1CCO` (stereo partly drawn), in experiment [12], the AC50 was 1.01 µM (active).
`Cc1onc(-c2ccccc2)c1C(=O)NC(=S)NNC(=O)c1ccc(O)cc1`: the EC50 in experiment [13] was 0.547 µM (active); in experiment [14], 9.46 µM (active). Further, the AC50 is 67.3 µM (active) in experiment [9] and 10.5 µM (active) in experiment [15].
For the compound `O=C(CN(Cc1ccccc1F)S(=O)(=O)c1ccc(Cl)cc1)NCCC1=CCCCC1`, the AC50 was 4.11 µM (active) in [8], 4.59 µM (active) in experiment [10], 6.77 µM (active) in experiment [16] and 25.6 µM (active) in [15].
Regarding `C[C@H]1CN([C@@H](C)CO)C(=O)c2cccc(NC(=O)c3ccncc3)c2O[C@@H]1CN(C)Cc1ccc(Cl)cc1`, the AC50 in experiment [12] was 0.00712 µM (active).
Still for that read-out and setting: the same measure for `CC(C)(C)[S@+]([O-])N1Cc2cc(C(=O)NCc3ccc4c(c3)OCO4)nc(-c3cccc(-c4ccncc4)c3)c2[C@@H]1CCO`: 0.152 µM (active).
Take `Cc1ccc(OCC(=O)N2CCN(Cc3ccc([N+](=O)[O-])cc3)CC2)cc1`: the IC50 in experiment [17] was 163 µM (active); in [11], > 80 µM (inactive).
For `O=C(Nc1cccc(F)c1)c1cc(S(=O)(=O)N2CCC(C(=O)O)CC2)ccc1F`, the concentration at half-maximal activity (AC50) in experiment [16] was 28.9 µM (active).
